In ChEMBL document CHEMBL1148229, “Synthesis of a novel intercalator based on 2,2'-binaphthalene bearing dimethylammonium groups” (Bioorg Med Chem Lett, 2004):

What was measured:
Nucleic Acid [1] = assay: Intrinsic association constant for DNA; format: nucleic-acid assay, Bos taurus
Nucleic Acid [2] = assay: Melting temperature (Tm) of DNA in the presence of compound (5 uM); format: functional; conditions: Bos taurus
Nucleic Acid [3] = assay: Apparent association constant for DNA; format: nucleic-acid assay, Bos taurus
Nucleic Acid [4] = assay: Melting temperature (Tm) of DNA in the absence of the compound; format: functional; conditions: Bos taurus
[5] = Concentration of compound required for reduction of the fluorescence of ethidium bromide; format: functional

With CC[n+]1c(-c2ccccc2)c2cc(N)ccc2c2ccc(N)cc21.[Br-] [HOMIDIUM BROMIDE] the Ki (Nucleic Acid [1]) was 360000 M⁻¹.
CNc1ccc2ccccc2c1 gave a Ki (Nucleic Acid [1]) of 2200 M⁻¹.
In the case of CN(C)Cc1cccc2ccc(-c3ccc4cccc(CN(C)C)c4c3)cc12, the Tm (Nucleic Acid [2]) is reported as 81.2 °C, the Ki (Nucleic Acid [1]) is reported as 800000 M⁻¹ and the Ki (Nucleic Acid [3]) is reported as 100000 M⁻¹. The Tm (Nucleic Acid [4]) was 75 °C and the C50 [5] was 7.2 µM.
